Test results from patent publication US7238469B2, “Carbon monoxide improves outcomes in tissue and organ transplants and suppresses apoptosis” (priority 2001, dated 2007).

Key:
HO enzymatic activity = HO enzymatic activity (bilirubin generation in microsomes) of transplanted hearts; format: in vivo, mouse hearts transplanted into rats; settings: 2 days after transplantation
Protocol: HO enzymatic activity was measured by bilirubin generation in heart and liver microsomes. Animals were sacrificed, and the liver and hearts were flushed with ice-cold PBS and frozen at −70° C. until used. Organs were homogenized in four volumes of sucrose (250 mM) Tris-HCl (10 mM/L) buffer (pH 7.4) on ice and centrifuged (28,000 RPM 3×, 20 min, 4° C.). The supernatant was centrifuged (105,000 RPM 3×, 60 min, 4° C.), and the microsomal pellet was resuspended in MgCl2 (2 mM)-potassium phosphate (100 mM) buffer (pH 7.4) and sonicated on ice. The samples (1 mg of protein) were added to the reaction mixture (400 îl) containing rat liver cytosol (2 mg of protein), hemin (50 îM), glucose-6-phosphate (2 mM), glucose-6-phosphate dehydrogenase (0.25 U), and NADPH (0.8 mM) for 60 min at 37° C. in the dark. The formed bilirubin was extracted with chloroform and, OD was measured at 464–530 nm (extinction coefficient, 40 mM/cm for bilirubin). Enzyme activity is expressed as picomoles of bilirubin formed per milligram of protein per 60 min (pmol/mg/h). The protein concentration was determined by the bicinchoninic acid protein assay (Pierce, Georgetown). The background was ˜5 pmol/mg/h. […] Carboxyhemoglobin was measured 2 days after transplantation by using a Corning 865 blood gas analyzer (Clinical Chemistry, Massachusetts General Hospital, Boston, Mass.).

p38 MAPK = target: T1, p38 MAPK (Bos taurus, UniProt A6QLR9); format: cell-based, bovine; settings: BAECs; CO 10,000 ppm
T1 construct: endogenous in cells; host or cells: bovine aortic endothelial cells (BAEC)

[1] = test system: mouse 2F–2B endothelial cells; assay: Cellular ELISA for anti-graft Abs and rat C3 binding to mouse endothelial cells; format: in vivo; settings: rats with mouse cardiac graft under CVF plus CsA
Protocol: Serum levels of rat anti-mouse Abs were measured by cellular-based indirect ELISA. The mouse 2F–2B endothelial cell line (CRL-2168; American Type Culture Collection (ATCC), Manassas, Va.) was used as an antigenic target. Briefly, 2F–2B cells were cultured in DMEM (Life Technologies, Rockville, Md.), 10% FCS, 100 U/ml penicillin, and 100 îg/ml streptomycin (Life Technologies). Glutaraldehyde-fixed 2F–2B cells were incubated (1 h, 37° C.) in the presence of rat serum serially diluted in PBS 0.05% Tween 20 (Sigma) and rat anti-mouse Abs were detected by using mouse anti-rat IgM (MARM-4), IgG1 (MARG1-2), IgG2a (Marg2a-1), IgG2b (MARGb-8), or IgG2c (MARG2c-5) (kind gifts from Prof. H. Bazin, University of Louvain, Brussels, Belgium). Mouse anti-rat Abs were detected by using HRP-labeled goat anti-mouse Fab′ depleted of anti-rat Ig cross reactivity (0.1 îg/ml, 1 h, room temperature; Pierce, Rockford, Ill.). […] Absorbance was measured at Î=490 nm. The relative amount of circulating anti-graft Abs in the serum was expressed as OD (Î=490) taken from one serial dilution in the linear range of the assay (1:32–1:1024).
Binding of rat C3 to mouse endothelial cells was measured by a modified cellular ELISA with mouse 2F–2B endothelial cells as antigenic targets (Miyatake et al, J. Immunol. 160:4114, 1998). Briefly, nonfixed 2F–2B endothelial cells were incubated in the presence of rat serum serially diluted in GVB^++ buffer (1 h, 37° C.). Cells were fixed in PBS, 0.05% glutaraldehyde, and rat C3 deposition was detected by using a mouse anti-rat C3 mAb (Serotec).

[2] = test system: rat platelets overlaid on mouse 2F–2B endothelial cells; assay: Platelet aggregation assay, platelets overlaid on pretreated endothelial cells; format: cell-based; settings: endothelial cells pretreated with protoporphyrin 50 μM; ADP 2 μM
Protocol: Mouse 2F–2B endothelial cells were cultured on 0.2% gelatin (Sigma) coated six-well plates in 88% DMEM (Life Technologies), 10% FCS (FCS), 100 U/ml penicillin, and 100 îg/ml streptomycin (Life Technologies). Confluent endothelial cells either were left untreated or were treated with the HO-inducing agent CoPPIX (50 îM; 18 h), the HO inhibitor SnPPIX (50 îM, 18 h), or both CoPPIX (50 îM, 15 h) and SnPPIX (50 îM, 3 h). Platelet-rich plasma was obtained by centrifugation (290-g, 12 min, 19° C.) of normal rat […] in 3.8% sodium citrate. Rat platelets (3–10^8 cells ml) were resuspended in HT buffer (8.9 mM NaHCO3, 0.8 mM KH2PO, 5.6 mM dextrose, 2.8 mM KCl solution, 0.8 mM MgCl2, 129 mM NaCl, 10 mM HEPES). Platelets were overlaid (5 min; 37° C.) on mouse endothelial cells, and platelet aggregation assays were conducted as described before (Kaczmarek et al, J. Biol. Chem. 271:33116, 1996) by using an aggregometer (Chrono-Log, Harestown, Pa.) and ADP (0.5–4 μM) as an agonist.

T1 sequence (A6QLR9 1-360): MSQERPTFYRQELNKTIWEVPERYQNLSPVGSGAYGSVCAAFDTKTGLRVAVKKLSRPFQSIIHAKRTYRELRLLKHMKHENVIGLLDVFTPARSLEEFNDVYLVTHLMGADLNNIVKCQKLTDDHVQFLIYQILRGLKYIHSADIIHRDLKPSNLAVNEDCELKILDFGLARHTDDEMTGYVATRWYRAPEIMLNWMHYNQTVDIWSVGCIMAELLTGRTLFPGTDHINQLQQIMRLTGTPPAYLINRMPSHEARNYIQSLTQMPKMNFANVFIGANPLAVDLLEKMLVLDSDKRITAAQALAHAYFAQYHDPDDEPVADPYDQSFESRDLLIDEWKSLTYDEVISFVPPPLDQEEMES

SMILES | total HO enzymatic activity in transplanted mouse hearts (HO enzymatic activity; rats treated with SnPPIX and exposed to CO) | p38 MAPK activation (p38 MAPK) | influence on C3 deposition on mouse endothelial cells [1] | influence on anti-mouse Ab (IgM) response [1] | total HO enzymatic activity in transplanted mouse hearts (HO enzymatic activity) | platelet aggregation on stimulation by ADP [2]
[C-]#[O+] [CO, carbon monoxide] | 43.6 ± 7.57 pmol/mg/h | activated p38 MAPK even in the absence of TNF-α | – | – | – | –
C=CC1=C(C)c2cc3[n-]c(cc4[n-]c(cc5nc(cc1n2)C(C)=C5C=C)c(C)c4CCC(=O)O)c(CCC(=O)O)c3C.[Fe+2] [FePPIX, iron protoporphyrin] | – | – | Neither SnPPIX or FePPIX treatment influenced C3 deposition | did not influence this Ab response | – | –
C=Cc1c2[n-]c(c1C)/C=c1\[n-]/c(c(C)c1C=C)=C\c1[n-]c(c(CCC(=O)O)c1C)C=c1[n-]/c(c(C)c1CCC(=O)O)=C\2.[Sn+4] [SnPPIX, tin protoporphyrin IX] | – | – | Neither SnPPIX or FePPIX treatment influenced C3 deposition | did not influence this Ab response | 32.37 ± 7.23 pmol/mg/h | platelet aggregation was enhanced
